From the supplement of paper PMC11003180

Key:
Assay in all cases: drug sensitivity score (DSS) from 5-dose viability curve (DSS (area-based score, 0 = no response)); higher = more sensitive (stronger viability inhibition); extreme values may be limits of the assay
[1] = test system: MDCK p60AmotL2-inducible + doxycycline (p60AmotL2 expressing); settings: doxycycline: 10 ng/mL; 72 h
In short: (§1)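 Pre-spotted 384-well plates held 528 oncology drugs, each at five doses from 1 to 10,000 nM. Parental and doxycycline-inducible MDCK cells, exposed beforehand to 10 ng/mL doxycycline in the medium, were added at 2000 cells/well and incubated 72 h at 37 °C. Viability came from CellTiter-Glo luminescence normalized per plate to vehicle and positive controls, and the Breeze pipeline fitted dose-response curves to give drug sensitivity scores.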

[2] = test system: MDCK wild-type + doxycycline; settings: doxycycline: 10 ng/mL; 72 h
In short: as §1

[3] = test system: MDCK wild-type - doxycycline; settings: doxycycline: none; 72 h
In short: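 Parental MDCK cells without doxycycline were dispensed at 2000 cells/well onto pre-spotted 384-well plates. The plates held an oncology library of 528 drugs at five doses (1-10,000 nM) and were incubated 72 h at 37 °C. Viability was read as CellTiter-Glo luminescence and scaled per plate between vehicle and positive controls. Drug sensitivity scores came from dose-response curve fits in the Breeze pipeline.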

For `Nc1ncnc2c1nc(N)n2[C@@H]1O[C@H](CO)[C@@H](O)[C@H]1O` [8-amino-adenosine], the drug sensitivity score [1] was 19.8, the drug sensitivity score [2] was 18.2 and the drug sensitivity score [3] was 18.2.
With `CC(C)C[C@@H](C(=O)N[C@H](C(=O)OC1CCCC1)c1ccccc1)[C@H](O)C(=O)NO` [Tosedostat] the drug sensitivity score [1] was 2.5, the drug sensitivity score [2] was 1.7 and the drug sensitivity score [3] was 1.4.
`CC[C@H](NC(=O)[C@H](C)NC)C(=O)N1C[C@@H](O)C[C@H]1Cc1c(-c2[nH]c3cc(F)ccc3c2C[C@@H]2C[C@H](O)CN2C(=O)[C@H](CC)NC(=O)[C@H](C)NC)[nH]c2cc(F)ccc12` [Birinapant] gave a drug sensitivity score [1] of 0, a drug sensitivity score [2] of 0 and a drug sensitivity score [3] of 0.
`CN(C)CC#Cc1ccc(OCCCc2sc(N3CCc4cccc(C(=O)Nc5nc6ccccc6s5)c4C3)nc2C(=O)O)c(F)c1` gave a drug sensitivity score [1] of 0, a drug sensitivity score [2] of 0 and a drug sensitivity score [3] of 0.
With `Cc1cc(-c2nc(-c3ccc(OC(F)(F)F)cc3)no2)nn1Cc1ccnc(N2CCN(C3CC3)CC2)c1` [BAY 87-2243] the drug sensitivity score [1] was 0, the drug sensitivity score [2] was 0 and the drug sensitivity score [3] was 0.
In the case of `Oc1ncnc2[nH]ncc12` [Allopurinol], the drug sensitivity score [1] is reported as 0, the drug sensitivity score [2] is reported as 0 and the drug sensitivity score [3] is reported as 0.
With `CN(C(=O)c1ccc(F)cc1C(F)(F)F)C1CCN(c2nnc(-c3ccnn3C)c3ccccc23)CC1` [Taladegib] the drug sensitivity score [1] was 0, the drug sensitivity score [2] was 0 and the drug sensitivity score [3] was 0.
With `O=C(Nc1cccc(NC(=O)c2cccc(O)c2O)c1)c1cccc(O)c1O` [MST-312] the drug sensitivity score [1] was 9.1, the drug sensitivity score [2] was 5.9 and the drug sensitivity score [3] was 7.2.
With `CCOc1cc2ncc(C#N)c(Nc3ccc(OCc4ccccn4)c(Cl)c3)c2cc1NC(=O)/C=C/CN(C)C` [Neratinib] the drug sensitivity score [1] was 16.8, the drug sensitivity score [2] was 7.5 and the drug sensitivity score [3] was 5.1.
`O=C(O)c1ccc2c(c1)nc(Nc1cccc(Cl)c1)c1ccncc12` [Silmitasertib] was tested, and the drug sensitivity score [1] was 1.6, the drug sensitivity score [2] was 1.4 and the drug sensitivity score [3] was 0.
For `CC1(C)CNc2cc(NC(=O)c3cccnc3NCc3ccncc3)ccc21` [Motesanib], the drug sensitivity score [1] was 0, the drug sensitivity score [2] was 0 and the drug sensitivity score [3] was 0.
Work on `CC(C)Cn1cnc2c(N)nc3ccccc3c21` [Imiquimod] yielded a drug sensitivity score [1] of 0.3, a drug sensitivity score [2] of 0 and a drug sensitivity score [3] of 0.
With `CCN(CC)CCNC(=O)c1c(C)[nH]c(/C=C2\C(=O)Nc3ccc(F)cc32)c1C` [Sunitinib] the drug sensitivity score [1] was 1.2, the drug sensitivity score [2] was 0 and the drug sensitivity score [3] was 0.
`CN(C)C/C=C/C(=O)Nc1cc2c(Nc3ccc(F)c(Cl)c3)ncnc2cc1O[C@H]1CCOC1` [Afatinib] showed a drug sensitivity score [1] of 18.3, a drug sensitivity score [2] of 3.5 and a drug sensitivity score [3] of 4.2.
For `Cc1cccc(-c2[nH]c(CNc3ccccc3F)nc2-c2ccc3ncnn3c2)n1` [TEW-7197], the drug sensitivity score [1] was 4.3, the drug sensitivity score [2] was 0 and the drug sensitivity score [3] was 1.1.
Compound `COC(=O)C[C@](O)(CCCC(C)(C)O)C(=O)O[C@@H]1C(OC)=C[C@]23CCCN2CCc2cc4c(cc2[C@H]13)OCO4` [Omacetaxine] has a drug sensitivity score [1] of 33.6, a drug sensitivity score [2] of 32.4 and a drug sensitivity score [3] of 33.5.
`CC(C)n1cnc2c(NCCc3ccc(O)cc3)nc(-c3csc4ccccc34)nc21` [StemRegenin 1] was tested, and the drug sensitivity score [1] was 1.5, the drug sensitivity score [2] was 0.9 and the drug sensitivity score [3] was 2.
With `O=C(O)C(=O)O.[NH-][C@@H]1CCCC[C@H]1[NH-].[Pt+2]` [Oxaliplatin] the drug sensitivity score [1] was 12.3, the drug sensitivity score [2] was 10.2 and the drug sensitivity score [3] was 8.1.
`C=CC(=O)N1CC/C(=C\c2ccc(F)c([N+](=O)[O-])c2)C(=O)/C(=C/c2ccc(F)c([N+](=O)[O-])c2)C1` [VLX1570] showed a drug sensitivity score [1] of 17.2, a drug sensitivity score [2] of 17.3 and a drug sensitivity score [3] of 15.5.
Work on `C=CC(=O)Nc1cccc(Oc2nc(Nc3ccc(N4CCN(C)CC4)cc3)nc3ccsc23)c1` [Olmutinib] yielded a drug sensitivity score [1] of 1.5, a drug sensitivity score [2] of 0 and a drug sensitivity score [3] of 0.
Work on `CCCCc1nc2cc(/C=C/C(=O)NO)ccc2n1CCN(CC)CC` [Pracinostat] yielded a drug sensitivity score [1] of 17.7, a drug sensitivity score [2] of 15.9 and a drug sensitivity score [3] of 15.
Compound `Cc1cc2c(F)c(Oc3ncnn4cc(OC[C@@H](C)O)c(C)c34)ccc2[nH]1` [Brivanib] has a drug sensitivity score [1] of 0, a drug sensitivity score [2] of 0 and a drug sensitivity score [3] of 0.
